Assay results published in US20150359742A1, “COMPOSITIONS AND METHODS FOR ENHANCING THE TOPICAL APPLICATION OF A BENEFIT AGENT INCLUDING POWDER TO LIQUID PARTICLES AND A SECOND POWDER” (Johnson & Johnson Consumer Inc., priority 2014, published 2015).

Tested on: Pigmented human epidermal equivalents (MelanoDerm™)
Test: In vitro test for depigmentation activity in pigmented human epidermal equivalents (MelanoDerm, MEL-300-B)
Assay type: cell-based
Details: applied topically daily for 8 days, measured on day 9
Text: Pigmented human epidermal equivalents (MelanoDerm™) from MatTek Corporation (Ashland, Mass.) were used to assess the depigmentation activity of test materials. MelanoDerm™ consists of normal, human-derived epidermal keratinocytes (NHEK) and melanocytes (NHM) which have been cultured to form a multilayered, highly differentiated model of the human epidermis. Specifically, MEL-300-B tissues, each 9 mm in diameter were used in the following tests.
The Example 2 ascorbic acid powder mixture was compared with 1% Ascorbic Acid 2-Glucoside (Hayashibara Co Ltd, Japan) in a solvent of 70% ethyl alcohol and 30% butylene glycol as a benchmark. Test materials were applied topically to the MelanoDerm™ skin model daily and the experiment lasted for 8 days. Measurement was taken on day 9. The macroscopic and microscopic visual tissue darkening end points were measured by taking pictures with a digital camera. The Degree of Lightness for each tissue (L-Value) was measured using a spectrophotometer (Konica Minolta CM-2600d). The ΔL (degree of lightness as compared to control) for each test sample is calculated as per following formula: […]
Degree of skin lightness:
ΔL*=L*-value of treated sample−L*-value of control sample.
ΔMexa Index=Melanin Index of control−Melanin Index of treated sample.

SMILES: O=C1O[C@H]([C@@H](O)CO)C(O)=C1O[C@H]1O[C@H](CO)[C@@H](O)[C@H](O)[C@H]1O [1% ascorbic acid 2-glucoside in vehicle, Ascorbic Acid 2-Glucoside]
- Δ Mexa Index (Melanin Index of control minus treated sample): 145.67
- Δ L-value (degree of skin lightness, treated minus control) (spectrophotometer): 2.34
